{"source": "patent US9687429B2", "about": "“Antimicrobial compositions containing low concentrations of botanicals” (THE TRUSTEES OF COLUMBIA UNIVERSITY IN THE CITY OF NEW YORK, priority 2007, dated 2017)", "key": {"S. aureus [1]": {"tested_on": "S. aureus", "details": "erythromycin, gentamicin, vancomycin, ciproflaxin, clindamycin, tetracycline; cited from earlier work"}, "S. aureus [2]": {"tested_on": "S. aureus", "test": "Soap rapid kill test (30 second kill) in presence of bovine serum", "type": "cell-based", "method": "The antimicrobial activity of the above soap was tested in parallel with commercial Softsoap® containing triclosan (Softsoap® Antibacterial; Colgate-Palmolive). 0.1 ml of a 10^8 cfu/ml culture of each microbe tested was mixed with 0.1 ml of bovine serum and placed in a sterile culture tube. 0.8 ml of the test soap formulation was added to the tube and vortexed for 30 seconds. Then 9.0 ml DNB was added to neutralize the activity of the soap. The tube was then vortexed and serially diluted with DNB. 0.5 ml of the diluted solution was plated on TSA plates. The same soap base lacking cinnamon oil, citric acid, and orange oil, with phosphate buffered saline mixed with the culture, were used as the controls.\nThe antimicrobial activity of the above soap was tested in parallel with commercial Dial® Antibacterial Hand Soap) containing triclosan. 0.1 ml of a 10^8 cfu/ml culture of each microbe tested was mixed with 0.1 ml of bovine serum and placed in a sterile culture tube. 0.8 ml of the test soap formulation was added to the tube and vortexed for 30 seconds. Then 9.0 ml DNB was added to neutralize the activity of the soap. The tube was then vortexed and serially diluted with DNB. 0.5 ml of the diluted solution was plated on TSA plates. The same soap base lacking cinnamon oil, citric acid, and orange oil, with phosphate buffered saline mixed with the culture, were used as the controls.\nThe following method was used. A mixture of 0.1 ml of 10^7 cfu/ml of S. aureus culture and 0.1 ml of bovine serum were placed in a sterile culture tube. 0.8 ml of the test soap formulation was added to the tube and vortexed for 30 seconds. 9.0 ml DFN was added to the tube to neutralize the activity of the soap; this tube was then vortexed and serially diluted with DFN. 0.5 ml of the diluted solution was plated on trypticase soy agar plates, incubated at 37° C. for 24-48 hours and the colony counts were determined. Soft Soap® and Dial® soaps containing 0.15% triclosan was also tested similarly at the same time. The soap base without essential oils and Citric acid containing the culture were used as controls.\nThe following method was used. A mixture of 0.1 ml of 10^7 cfu/ml of S. aureus culture and 0.1 ml of bovine serum were placed in a sterile culture tube. 0.8 ml of the test soap formulation was added to the tube and vortexed for 30 seconds. 9.0 ml DFN was added to the tube to neutralize the activity of the soap; this tube was then vortexed and serially diluted with DFN. 0.5 ml of the diluted solution was plated on trypticase soy agar plates, incubated at 37° C. for 24-48 hrs and the colony counts were determined. Soft Soap® and Dial® soaps containing 0.15% triclosan was also tested similarly at the same time. The soap base without essential oils and citric acid containing the culture were used as controls.\nThe following method was used. A mixture of 0.1 ml of 10^8 cfu/ml of S. aureus culture and 0.1 ml of bovine serum were placed in a sterile culture tube. 0.8 ml of the test soap formulation was added to the tube and vortexed for 30 seconds. 9.0 ml DFN was added to the tube to neutralize the activity of the soap; this tube was then vortexed and serially diluted with DFN. 0.5 ml of the diluted solution was plated on trypticase soy agar plates, incubated at 37° C. for 24-48 hours and the colony counts were determined.\nA mixture of 0.1 ml of 10^7 cfu/ml of S. aureus culture and 0.1 ml of bovine serum were placed in a sterile culture tube. 0.8 ml of the test soap formulation was added to the tube and vortexed for 30 seconds. 9.0 ml DFN was added to the tube to neutralize the activity of the soap; this tube was then vortexed and serially diluted with DFN."}, "S. aureus [3]": {"tested_on": "S. aureus", "test": "Synergistic activity of essential oils and plant extracts with citric acid, log10 reduction from control bacterial counts", "type": "cell-based", "details": "Table 202, compounds in %, control counts 1×10^7 to 5×10^7", "from_the_text": "Log10 reduction from control bacterial counts that range from 1×10^7 to 5×10^7."}, "S. aureus [4]": {"tested_on": "S. aureus", "test": "Five-minute kill test of solutions in 10% SDA40-B alcohol and water, colony counts", "type": "cell-based", "details": "control counts 1 × 10^6 to 5 × 10^6", "procedure": "Various concentrations of basil oil and acetic, lactic, and citric acids, separately and in combination, were prepared in 10 percent SDA40-B alcohol and water, and adjusted to 100 percent. Except for citric acid, which was added by weight, all other ingredients were measured by volume. 0.9 ml of each solution were dispensed in sterile culture tubes, in triplicate, and 0.1 ml of a 10^7 cfu/ml S. aureus culture was added to the tubes, vortexed, and then, five minutes later, 9.0 ml of drug inactivating medium was added to each tube. Serial dilutions were made with the drug inactivating medium. 0.5 ml of the dilutions were plated on trypticase soy agar (“TSA”) plates. As a control, water containing 10 percent SDA40-B alcohol was processed in parallel. The plates were incubated at 37° C. for 24-48 hours and then the colony counts were determined.\nThe same methodology was used to test the antimicrobial activity of combinations of citric acid with other essential oils.\nVarious concentrations of cinnamon leaf oil and citric acid were dissolved in SDA 40-B alcohol (10%) and water, and adjusted to 100 percent. Except for citric acid, which was added by weight, all other ingredients were measured by volume. 0.9 ml of each solution were dispensed in sterile culture tubes, in triplicate, and 0.1 ml of 10^7 cfu/ml of S. aureus culture was added to the tubes, vortexed, and then, five minutes later, 9.0 ml of drug inactivating medium was added to each tube. Serial dilutions were made with the drug inactivating medium. 0.5 ml of the dilutions were plated on trypticase soy agar (“TSA”) plates. As a control, water containing 10% percent SDA40-B alcohol was processed in parallel. The plates were incubated at 37° C. for 24-48 hours and then the colony counts were determined.\nThe following experiments were performed to evaluate the antibacterial activity of LG and Citric acid dissolved in alcohol, where the test organism used was S. aureus. Various amounts of LG oil and Citric acid were dissolved in SDA40-B alcohol, and then water was added to result in the EO concentration shown and an alcohol concentration of 10 percent. 0.9 ml of each solution were dispensed in sterile culture tubes, in triplicate, and 0.1 ml of a 10^7 cfu/ml S. aureus culture was added to the tubes, vortexed, and then, five minutes later, 9.0 ml of drug inactivating medium was added to each tube. Serial dilutions were made with drug inactivating medium. 0.5 ml of the dilutions were plated on trypticase soy agar (“TSA”) plates. As a control, water containing 10 percent SDA40-B alcohol was processed in parallel. The plates were incubated at 37° C. for 24-48 hours and then the colony counts were determined."}}}
{"smiles": "CC(C)=CCC[C@](C)(O)C1CC=C(C)CC1", "note": "(some centres unmarked) [bisabolol]", "values": [{"measurement": "effect on susceptibility of S. aureus to antibiotics (in words)", "setting": "S. aureus [1]", "result": "enhanced the susceptibility of S. aureus"}]}
{"smiles": "C=CC(C)(O)CCC=C(C)CCC=C(C)C", "note": "(centres unmarked) [nerolidol]", "values": [{"measurement": "effect on susceptibility of S. aureus to antibiotics (in words)", "setting": "S. aureus [1]", "result": "enhanced the susceptibility of S. aureus"}]}
{"smiles": "O=C(O)CC(O)(CC(=O)O)C(=O)O", "note": "[citric acid]", "values": [{"measurement": "antibacterial activity of soap, 30 second kill (in words)", "setting": "S. aureus [2]; bovine serum", "result": "enhance the activity of soaps containing triclosan"}]}
{"smiles": "C=CCc1ccc(O)c(OC)c1", "note": "[eugenol]", "values": [{"measurement": "antibacterial activity of soap, 30 second kill (in words)", "setting": "S. aureus [2]; bovine serum", "result": "improved the antimicrobial effect"}]}
{"smiles": "O=C(O)CC(O)(CC(=O)O)C(=O)O", "note": "[1 Citric acid]", "values": [{"measurement": "Log10 Reduction from control bacterial counts", "setting": "S. aureus [3]", "result": 0.7, "unit": "Log10"}]}
{"smiles": "CC(O)C(=O)O", "note": "(centres unmarked) [1% Lactic acid (LA)]", "values": [{"measurement": "Log10 Reduction from control bacterial counts", "setting": "S. aureus [4]; Table 105, five minutes", "result": 2.3, "unit": "Log10"}]}
{"smiles": "CCCCCCCCC(O)CO", "note": "(centres unmarked) [1,2 decanediol (0.3%)]", "values": [{"measurement": "Log10 reduction from control", "setting": "S. aureus [2]; Table 150, 30 seconds, bovine serum, alkanediols 0.3%, control 2 × 10^8-5 × 10^8", "result": 0.6, "unit": "Log10"}]}
{"smiles": "CC(C)=CCCC(C)=CCCC(C)=CCO", "note": "[farnesol]", "values": [{"measurement": "effect on susceptibility of S. aureus to antibiotics (in words)", "setting": "S. aureus [1]", "result": "enhanced the susceptibility of S. aureus"}]}
{"smiles": "CC(=O)O", "note": "[1% Acetic acid (AA)]", "values": [{"measurement": "Log10 Reduction from control bacterial counts", "setting": "S. aureus [4]; Table 105, five minutes", "result": 0.2, "unit": "Log10"}]}
{"smiles": "CCCCCCCCC(O)CO", "note": "(centres unmarked) [1,2 decanediol(0.5%)]", "values": [{"measurement": "Log10 reduction from control", "setting": "S. aureus [2]; Table 151, 30 second Kill, alkanediols 0.5%, soaps pH 4.5-4.6, control 2 × 10^8-5 × 10^8", "result": 1.4, "unit": "Log10"}]}
{"smiles": "O=C(O)CC(O)(CC(=O)O)C(=O)O", "note": "[1% Citric Acid (CA)]", "values": [{"measurement": "Log10 Reduction from control bacterial counts", "setting": "S. aureus [4]; Table 105, five minutes", "result": 0.1, "unit": "Log10"}]}
{"smiles": "CCCCCCCCC(O)CO", "note": "(centres unmarked) [decanediol, 1,2 decanediol]", "values": [{"measurement": "antibacterial activity of soap, 30 second kill (in words)", "setting": "S. aureus [2]; bovine serum", "result": "enhances the activity of Dial®-T Soap+LG-O-Cit 4"}]}
{"smiles": "CC(C)=CCC/C(C)=C/CC1CCCC1=O", "note": "(centres unmarked) [apritone]", "values": [{"measurement": "effect on susceptibility of S. aureus to antibiotics (in words)", "setting": "S. aureus [1]", "result": "enhanced the susceptibility of S. aureus"}]}
{"smiles": "CC(C)=CCCC(C)=CCCC(C)=CCO", "note": "[0.25% Farnesol]", "values": [{"measurement": "Log10 Reduction from control bacterial counts", "setting": "S. aureus [4]; Table 106, five minutes", "result": 0, "unit": "Log10"}]}
